Laboratory results taken from the supplement of paper PMC10307832.

Key:
Test in all cases: relative viability (nuclei count vs DMSO), 5 days (fraction); higher = more cells survive
XMD8-85 + Bortezomib = compound: CN1CCN(CC1)C2=CC(=C(C=C2)NC3=NC=C4C(=N3)N(C5=CC=CC=C5C(=O)N4C)C)OC [XMD8-85] + CC(C)C[C@H](NC(=O)[C@H](Cc1ccccc1)NC(=O)c1cnccn1)B(O)O [Bortezomib] (partner 0.002 µM)
Procedure, shortened: (§1)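 Relative viability divides the nuclei count in treated wells by that in vehicle wells. Lung cancer cell lines were seeded in 1536-well plates, dosed by pin tool the next day, and fixed and stained after 5 days in one step with final 0.05% Triton X-100, 1% formaldehyde and 1 ug/ml Hoechst. Dosing was a single drug or a fixed anchor-drug dose plus five library-drug doses (not always all listed) in √10 steps, and values are medians of duplicate plates imaged at 4×.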

XMD8-85 + Tozasertib = compound: CN1CCN(CC1)C2=CC(=C(C=C2)NC3=NC=C4C(=N3)N(C5=CC=CC=C5C(=O)N4C)C)OC [XMD8-85] + Cc1cc(Nc2cc(N3CCN(C)CC3)nc(Sc3ccc(NC(=O)C4CC4)cc3)n2)n[nH]1 [Tozasertib] (partner 0.1 µM)
Procedure, shortened: as §1

XMD8-85 + Olaparib = compound: CN1CCN(CC1)C2=CC(=C(C=C2)NC3=NC=C4C(=N3)N(C5=CC=CC=C5C(=O)N4C)C)OC [XMD8-85] + O=C(c1cc(Cc2n[nH]c(=O)c3ccccc23)ccc1F)N1CCN(C(=O)C2CC2)CC1 [Olaparib] (partner 8 µM)
Procedure, shortened: as §1

XMD8-85 + Lapatinib = compound: CN1CCN(CC1)C2=CC(=C(C=C2)NC3=NC=C4C(=N3)N(C5=CC=CC=C5C(=O)N4C)C)OC [XMD8-85] + CS(=O)(=O)CCNCc1ccc(-c2ccc3ncnc(Nc4ccc(OCc5cccc(F)c5)c(Cl)c4)c3c2)o1 [Lapatinib] (partner 2 µM)
Procedure, shortened: as §1

Row | Cell Line | relative viability (XMD8-85 + Bortezomib; first compound 0.08 µM) | relative viability (XMD8-85 + Bortezomib; first compound 0.253 µM) | relative viability (XMD8-85 + Bortezomib; first compound 0.8 µM) | relative viability (XMD8-85 + Bortezomib; first compound 2.53 µM) | relative viability (XMD8-85 + Bortezomib; first compound 8 µM) | relative viability (XMD8-85 + Tozasertib; first compound 0.08 µM) | relative viability (XMD8-85 + Tozasertib; first compound 0.253 µM) | relative viability (XMD8-85 + Tozasertib; first compound 0.8 µM) | relative viability (XMD8-85 + Tozasertib; first compound 2.53 µM) | relative viability (XMD8-85 + Tozasertib; first compound 8 µM) | relative viability (XMD8-85 + Olaparib; first compound 0.08 µM) | relative viability (XMD8-85 + Olaparib; first compound 0.253 µM) | relative viability (XMD8-85 + Olaparib; first compound 0.8 µM) | relative viability (XMD8-85 + Olaparib; first compound 2.53 µM) | relative viability (XMD8-85 + Olaparib; first compound 8 µM) | relative viability (XMD8-85 + Lapatinib; first compound 0.08 µM) | relative viability (XMD8-85 + Lapatinib; first compound 0.253 µM) | relative viability (XMD8-85 + Lapatinib; first compound 0.8 µM) | relative viability (XMD8-85 + Lapatinib; first compound 2.53 µM) | relative viability (XMD8-85 + Lapatinib; first compound 8 µM)
1 | NCI-H441 | 0.509 | 0.442 | 0.392 | 0.581 | 0.367 | 0.758 | 0.601 | 0.657 | 0.768 | 0.408 | 0.405 | 0.553 | 0.421 | 0.538 | 0.371 |  |  |  |  | 
2 | NCI-H522 |  |  |  |  |  | 0.557 | 0.562 | 0.41 | 0.519 | 0.467 | 0.699 | 0.632 | 0.615 | 0.537 | 0.568 |  |  |  |  | 
3 | NCI-H1299 | 1.07 | 1.09 | 1.02 | 0.996 | 0.781 |  |  |  |  |  | 1.02 | 1 | 0.97 | 0.892 | 0.578 | 1 | 0.985 | 0.977 | 0.974 | 0.67
4 | NCI-H1395 |  |  |  |  |  | 0.768 | 0.786 | 0.716 | 0.693 | 0.571 | 0.421 | 0.426 | 0.43 | 0.474 | 0.452 | 0.9 | 1.11 | 0.927 | 0.95 | 0.679
5 | NCI-H1563 | 0.848 | 0.855 |  | 0.839 | 0.645 |  |  |  |  |  |  |  |  |  |  | 1.04 | 0.87 | 1.01 | 0.822 | 0.7
6 | NCI-H1623 |  |  |  |  |  | 0.495 | 0.336 | 0.41 | 0.421 | 0.367 |  |  |  |  |  |  |  |  |  | 
7 | NCI-H1648 |  |  |  |  |  | 0.438 | 0.394 |  |  | 0.324 | 0.857 | 1.14 | 0.919 | 0.482 | 0.861 |  |  |  |  | 
8 | NCI-H1703 | 0.28 | 0.267 | 0.306 | 0.345 | 0.196 |  |  |  |  |  | 0.308 |  | 0.427 | 0.42 | 0.312 |  | 1.22 | 1.25 | 1.26 | 0.841
9 | NCI-H1793 |  |  |  |  |  | 0.277 | 0.322 | 0.297 | 0.289 | 0.255 |  | 0.574 | 0.71 | 1.02 | 0.66 | 0.845 | 0.826 | 0.857 | 0.781 | 0.814
10 | NCI-H1944 |  |  |  |  |  | 0.27 | 0.277 | 0.264 | 0.256 | 0.21 | 0.39 | 0.393 | 0.44 | 0.402 | 0.338 | 0.784 | 0.733 | 0.897 | 1.02 | 0.702
11 | NCI-H2170 |  |  |  |  |  | 0.681 | 0.671 | 0.731 | 0.639 | 0.456 | 0.51 | 0.627 | 0.599 | 0.601 | 0.532 | 0.277 | 0.302 | 0.253 | 0.256 | 0.249
12 | NCI-H2342 |  |  |  |  |  | 0.529 | 0.46 | 0.478 | 0.424 | 0.405 | 0.421 | 0.466 | 0.359 | 0.487 | 0.408 |  |  |  |  | 
13 | SK-MES-1 |  |  |  |  |  | 0.998 | 0.939 |  | 0.81 | 0.276 | 0.819 | 0.683 |  | 0.707 | 0.408 | 0.443 | 0.493 | 0.446 | 0.464 | 0.419
14 | SW 900 |  |  |  |  |  | 0.553 | 0.657 | 0.557 | 0.424 | 0.312 | 0.824 | 0.705 | 1.15 | 0.786 | 0.376 |  |  |  |  | 
